Legend:
CDK5 complexed with p25 = CDK5 complexed with p25 (Homo sapiens, UniProt Q00535); assay: Cyclin dependent kinase activity assay (33P peptide phosphorylation); assay type: biochemical; details: 0.1 mM ATP, read-out: CDK 5 Activity*
Procedure: (§1) The assay of cyclin dependent kinase activity was determined by monitoring the phosphorylation of a synthetic peptide, PKTPKKAKKLRRR. The assay mixture contained 0.1 mM cold ATP, ^33P-γ-ATP (2000-4000 cpm/μL), 0.1 mM peptide, 1 mM DDt, and 10 mM MgCl2 in 100 mM HEPES buffer pH 7.4. The assay mixture, along with inhibitor and CDK enzyme (0.3-0.4 U/mL; either CDK5 complexed with p25, CDK2 complexed with complexed with cyclin A), was mixed together in a microtiter plate in a final volume of 40 μL, sealed and incubated for 2 hours at 30° C. Following incubation, a 15 μL aliquot was added to a Whatman P81 filtration plate containing 100 μL 0.5% phosphoric acid. This mixture was allowed to stand for 5 minutes prior to filtration on a vacuum manifold. The filter plate was washed with 5 successive additions of 300 μL 0.5% phosphoric acid. The filtration plate was air dried for 10 minutes before sealing the bottom. After addition of scintillation fluid to the sealed plate, phosphorylated peptide was quantified in a scintillation counter.

KDR = KDR (Homo sapiens, UniProt P35968); assay: Enzyme assay for EGFR2 (KDR); assay type: biochemical; details: 50 nM KDR; 500 μM ATP
Chain of KDR (P35968 20-1356, species assumed): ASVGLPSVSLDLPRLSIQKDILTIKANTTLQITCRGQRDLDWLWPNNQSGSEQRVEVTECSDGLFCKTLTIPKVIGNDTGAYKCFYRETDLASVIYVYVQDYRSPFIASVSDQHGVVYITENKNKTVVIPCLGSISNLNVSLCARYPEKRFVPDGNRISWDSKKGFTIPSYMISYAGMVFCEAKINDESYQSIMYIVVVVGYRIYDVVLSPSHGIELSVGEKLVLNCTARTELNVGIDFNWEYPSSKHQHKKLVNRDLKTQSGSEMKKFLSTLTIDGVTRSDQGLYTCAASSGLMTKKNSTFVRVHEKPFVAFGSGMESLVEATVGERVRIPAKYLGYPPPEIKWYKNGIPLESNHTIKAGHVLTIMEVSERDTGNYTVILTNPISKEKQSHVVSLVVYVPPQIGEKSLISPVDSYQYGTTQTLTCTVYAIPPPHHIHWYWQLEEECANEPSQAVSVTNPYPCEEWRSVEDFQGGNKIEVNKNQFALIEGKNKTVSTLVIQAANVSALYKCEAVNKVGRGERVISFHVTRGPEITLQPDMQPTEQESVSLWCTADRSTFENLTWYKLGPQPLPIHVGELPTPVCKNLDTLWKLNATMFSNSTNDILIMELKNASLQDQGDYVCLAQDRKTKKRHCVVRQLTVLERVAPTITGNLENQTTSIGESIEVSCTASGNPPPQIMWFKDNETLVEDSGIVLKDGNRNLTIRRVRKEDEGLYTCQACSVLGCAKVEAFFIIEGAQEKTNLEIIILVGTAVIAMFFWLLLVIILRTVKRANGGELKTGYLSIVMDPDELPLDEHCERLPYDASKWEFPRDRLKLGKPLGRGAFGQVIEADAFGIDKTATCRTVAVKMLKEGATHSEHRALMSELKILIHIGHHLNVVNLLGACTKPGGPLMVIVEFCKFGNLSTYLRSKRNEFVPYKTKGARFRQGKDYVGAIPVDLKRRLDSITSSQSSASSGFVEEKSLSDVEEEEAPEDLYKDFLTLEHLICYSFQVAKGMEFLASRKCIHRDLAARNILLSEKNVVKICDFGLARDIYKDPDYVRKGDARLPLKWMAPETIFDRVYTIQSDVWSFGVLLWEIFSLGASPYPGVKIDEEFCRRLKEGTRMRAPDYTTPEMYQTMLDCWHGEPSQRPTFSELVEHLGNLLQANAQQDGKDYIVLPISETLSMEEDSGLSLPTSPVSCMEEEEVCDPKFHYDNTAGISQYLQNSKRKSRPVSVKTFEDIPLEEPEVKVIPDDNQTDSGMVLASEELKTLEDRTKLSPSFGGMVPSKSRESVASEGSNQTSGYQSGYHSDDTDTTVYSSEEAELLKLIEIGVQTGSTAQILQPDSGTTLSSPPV
Procedure: Enzyme assays for IC50 determinations were performed in 96-well titer plates, in a total reaction volume of 50 μL. Each reaction contained 1.5 μL of appropriate dilutions of inhibitor, 50 mM Hepes, pH 7.4, 1 mM DTT, 10 mM magnesium chloride, 2 mM phospho-poly(E4Y) (Sigma Chemical Company), 500 μM unlabeled ATP, 0.0025 μM [^33P]ATP (Amersham Pharmacia Biotech), and 50 nM KDR. All components except KDR were added to the wells, and the reaction was started by the addition of the enzyme. The reactions were mixed and incubated at room temperature for 1 hr, after which the reactions were quenched by the addition of 50 μL of 8% phosphoric acid. At this point, 90 μL aliquots of the samples were applied to positively charged DEAE 96-well filter plates (Millipore Corporation MADENOB10). The plates were incubated for 30 min at room temperature. The samples were aspirated and the wells were washed 3 times with 200 μL of 0.5% phosphoric acid. To each well, 50 μL of scintillation cocktail was added and counted for 60 sec in a TopCount microplate scintillation counter (Packard Instrument Company). The concentration of a compound that inhibited the activity of KDR by 50% (IC50) was determined based its inhibition curve.

panel of protein kinases = assay: Specificity studies, summary in words; assay type: biochemical; details: against a panel of protein kinases
Procedure: The assays of kinases were determined by monitoring the phosphorylation of appropriate substrates. The assay mixture contained 0.1 mM cold ATP ^33P-γ-ATP (2000-4000 cpm/μL), 0.1 mM substrate, 1 mM DTT, and 10 mM MgCl2 in 100 mM HEPES buffer pH 7.4. The assay mixture, along with inhibitor and kinase enzyme (0.3-0.4 U/mL), was mixed together in a microtiter 96-well plate in a final volume of 40 μL, sealed and incbated for 1 hour at 30° C. Following incubation, a 15 μL aliquot was added to a Whatman P81 filtration plate containing 100 μL 0.5% phosphoric acid. This mixture was allowed to stand for 5 minutes prior to filtration on a vacuum manifold. The filter plate was washed with 5 successive additions of 300 μL 0.5% phosporic acid. The filtration plate was air dried for 10 minutes before sealing the bottom. After addition of scintillation fluid to the sealed plate, phosphorylated substrate was quantified in a scintillation counter.

A549/ATCC = assay: In vitro tumor cell efficacy test (SRB cell viability); assay type: cell-based; details: Homo sapiens, Non-Small Cell Lung Cancer, 72 hours
[1] = biological target: CDK2 complexed with cyclin A (Homo sapiens, UniProt P24941); assay: Cyclin dependent kinase activity assay (33P peptide phosphorylation); assay type: biochemical; details: 0.1 mM ATP, read-out: CDK 2 Activity*
Procedure: as §1

Chain of CDK5 complexed with p25 (Q00535 whole entry): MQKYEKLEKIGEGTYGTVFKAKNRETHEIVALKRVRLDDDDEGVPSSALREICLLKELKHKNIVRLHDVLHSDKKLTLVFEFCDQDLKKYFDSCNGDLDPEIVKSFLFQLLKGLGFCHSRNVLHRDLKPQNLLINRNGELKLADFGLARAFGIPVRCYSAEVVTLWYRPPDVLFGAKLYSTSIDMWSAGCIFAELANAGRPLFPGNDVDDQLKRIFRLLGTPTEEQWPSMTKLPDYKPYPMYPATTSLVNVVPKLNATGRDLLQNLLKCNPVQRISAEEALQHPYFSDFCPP
Chain of CDK5 complexed with p25 (Q15078 99-307 partner limits assumed): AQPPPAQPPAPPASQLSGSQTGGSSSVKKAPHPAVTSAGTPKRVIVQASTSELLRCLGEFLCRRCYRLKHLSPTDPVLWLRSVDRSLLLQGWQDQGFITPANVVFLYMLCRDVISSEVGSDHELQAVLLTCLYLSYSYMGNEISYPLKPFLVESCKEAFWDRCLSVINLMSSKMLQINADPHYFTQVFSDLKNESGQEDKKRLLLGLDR

Row | IC50 (CDK5 complexed with p25) [nM] | IC50 (KDR) [nM] | IC50 [1] [nM] | SMILES | specificity for CDK5 and CDK2 (panel of protein kinases) | LC50 (A549/ATCC) [nM]
1 | < 500 | 1000 to 20000 |  | Nc1nc(-c2cc(-c3ccc(O)cc3)ccc2O)cc(N2CCCC2CO)n1 (stereo in doubt) [Example 79, 3-[2-Amino-6-(2R-hydroxymethyl-pyrrolidin-1-yl)-pyrimidin-4-yl]-biphenyl-4,4′-diol] |  | 
2 |  |  |  | Nc1nccc(-c2cc(-c3ccc(O)cc3)ccc2O)n1 [3-(2-Amino-pyrimidin-4-yl)-biphenyl-4,4′-diol] | highly specific | > 100000
3 | 500 to 2000 |  | 2000 to 5000 | NC(=S)N/N=C/c1cc(-c2ccc(CO)cc2)ccc1O [Example 10, 5-(4-Hydroxymethylphenyl)salicylaldehyde Thiosemicarbazone] |  | 
4 | > 5000 |  | 500 to 2000 | NC(=O)/C=C/c1ccc(O)c(/C=N/NC(N)=S)c1 [Example 39, 3-Formyl-4-hydroxycinnamide, Thiosemicarbazone] |  | 
